Source: article PMC7468285, “The operational model of allosteric modulation of pharmacological agonism” (Scientific Reports, 2020)
Several values for one entry are separate records, joined by “and”; a condition that tells them apart may be missing. Identical values can stand only once. Like-named read-outs stand apart in the source and are kept apart here.

Tests used:
M1 muscarinic receptor [1] = molecular target: T1, M1 muscarinic receptor (Homo sapiens, UniProt P11229); type: binding
T1 construct: expressed in transfected cells; host or cells: CHO cells
T1 sequence (P11229 1-460): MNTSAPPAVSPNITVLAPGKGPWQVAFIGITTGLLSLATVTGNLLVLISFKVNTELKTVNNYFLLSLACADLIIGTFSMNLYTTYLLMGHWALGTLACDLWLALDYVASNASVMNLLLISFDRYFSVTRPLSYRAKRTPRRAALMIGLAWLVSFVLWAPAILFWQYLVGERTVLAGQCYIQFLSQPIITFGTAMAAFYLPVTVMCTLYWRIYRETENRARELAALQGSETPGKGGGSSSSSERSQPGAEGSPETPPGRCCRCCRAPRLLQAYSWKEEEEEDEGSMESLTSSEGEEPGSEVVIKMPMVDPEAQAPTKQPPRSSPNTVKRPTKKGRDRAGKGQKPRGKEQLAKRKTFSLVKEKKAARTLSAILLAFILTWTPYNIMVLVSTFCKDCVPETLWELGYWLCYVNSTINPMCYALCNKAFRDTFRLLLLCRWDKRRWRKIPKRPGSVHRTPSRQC
Experimental: (§1) CHO cells were grown to confluence in 75 cm^2 flasks in Dulbecco’s modified Eagle’s medium (DMEM) supplemented with 10% fetal bovine serum. Two million cells were subcultured in 100 mm Petri dishes. The medium was supplemented with 5 mM sodium butyrate for the last 24 h of cultivation to increase receptor expression. Cells were washed with phosphate-buffered saline and manually harvested on day 5 after subculture and centrifuged for 3 min at 250 × g. The pellet was suspended in 10 ml of ice-cold homogenization medium (100 mM NaCl, 20 mM Na-HEPES, 10 mM EDTA, pH = 7.4) and homogenized on ice by two 30 s strokes using a Polytron homogenizer (Ultra-Turrax; Janke & Kunkel GmbH & Co. KG, IKA-Labortechnik, Staufen, Germany) with a 30-s pause between strokes. Cell homogenates were centrifuged for 5 min at 1,000 × g. The supernatant was collected and centrifuged for 30 min at 30,000 × g. Pellets were suspended in the washing medium (100 mM, 10 mM MgCl2, 20 mM Na-HEPES, pH = 7.4), left for 30 min at 4 °C, and then centrifuged again for 30 min at 30,000 × g. Resulting membrane pellets were kept at -80 °C until assayed.
All radioligand binding experiments were optimized and carried out according to general guidelines. […] Agonist binding was determined in competition experiments with 1 nM [^3H]NMS. Nonspecific binding was determined in the presence of 10 μM atropine. Incubation was terminated by filtration through Whatman GF/C glass fibre filters (Whatman) using a Brandel harvester (Brandel, USA). […] The filters were cooled and counted in a Wallac Microbeta scintillation counter (Wallac, Finland).
Data from experiments were processed in Libre Office and then analysed and plotted using program Grace (https://plasma-gate.weizmann.ac.il/Grace). […] Inhibition constant KI was calculated as:28 KI=IC50/1+D/KD where [D] is the concentration of radioligand used and KD is its equilibrium dissociation constant.
Interaction between tracer ([^3H]NMS) and allosteric modulator:29 y=D+KD/D+KDKB+x/KB+xα where y is specific radioligand binding at concentration x of the allosteric modulator as per cent of binding in the absence of allosteric modulator. Where [D] and KD are concentration and equilibrium dissociation constant of the tracer ([^3H]NMS). The equilibrium dissociation constant of the allosteric modulator KB and factor of binding cooperativity α are obtained by fitting of Eq. (29) to data.
Interaction between tracer ([^3H]NMS) and allosteric modulator in the presence of an agonist at fixed concentration:30 y=D+KD/D+KDAKB+Bα2+KAKB+B/KAKB+Bα1 where y is specific radioligand binding at concentration x of the allosteric modulator as per cent of binding in the absence of allosteric modulator. Where [D] and KD are concentration and equilibrium dissociation constant of the tracer ([^3H]NMS), [A] and KA are concentration and equilibrium dissociation constant of the agonist. Parameters KB and α1 obtained by fitting of Eq. (29) to binding data in the absence of the agonist.31 Concentration-responsecurvey=basal+EMAX′-basal∗x^nH/x^nH+EC50nH where y is response normalized to basal activity in the absence of allosteric ligand at concentration x, E'MAX is the apparent maximal response, EC50 is concentration causing half-maximal effect, and nH is Hill coefficient.

M1 muscarinic receptor [2] = molecular target: T1, M1 muscarinic receptor; type: cell-based; conditions: for τA / EMAX: Table S3B, global fit; for τA: EMAX as shared parameter; for EMAX: EMAX estimated as shared parameter of all 4 curves; for α (factor of binding cooperativity) / β (factor of operational cooperativity): functional, global fit of Eq. (14)
Experimental: as §1
Accumulation of inositol phosphates (IPX) was assayed in cells in suspension. IPX was determined after separation on ion-exchange columns (Dowex 1X8-200, Sigma, USA). Cells were harvested by mild trypsinization and resuspended in KHB and centrifuged 250 g for 3 min. Cells were resuspended in KHB supplemented with 500 nM [^3H]myo-inositol (ARC, USA) and incubated at 37 °C for 1 h. Then they were washed once with an excess of KHB, resuspended in KHB containing 10 mM LiCl, and incubated for 1 h at 37 °C in the presence of indicated concentrations of agonists and/or allosteric modulator. Incubation was terminated by the addition of 0.5 ml of stopping solution (chloroform: methanol: HCl; 2: 1: 0.1) and placed in 4 °C for 1 h. An aliquot (0.6 ml) of the upper (aqueous) phase was taken and loaded onto ion-exchange columns. Columns were washed with 10 ml of deionized water and 20 ml of 60 mM ammonium formate/5 mM sodium borate solution. IPX were collectively eluted from columns by 4 ml of 1 M ammonium formate-0.1 M/formic acid buffer.
Where [D] and KD are concentration and equilibrium dissociation constant of the tracer ([^3H]NMS), [A] and KA are concentration and equilibrium dissociation constant of the agonist. Parameters KB and α1 obtained by fitting of Eq. (29) to binding data in the absence of the agonist.31 Concentration-responsecurvey=basal+EMAX′-basal∗x^nH/x^nH+EC50nH where y is response normalized to basal activity in the absence of allosteric ligand at concentration x, E'MAX is the apparent maximal response, EC50 is concentration causing half-maximal effect, and nH is Hill coefficient.

Cc1ccccc1CN1CCC(N2CCC(n3c(=O)[nH]c4ccccc43)CC2)CC1 [TBPB, 3-[1-[1-[(2-methylphenyl)methyl]piperidin-4-yl]piperidin-4-yl]-1H-benzimidazol-2-one]
αNMS (factor of binding cooperativity with NMS) (M1 muscarinic receptor [1]; Eq. (29)): 0.002 ± 0.001 | inhibition of [3H]NMS binding (M1 muscarinic receptor [1]; allosteric ligand alone): completely inhibited | αcarbachol (factor of binding cooperativity with carbachol) (M1 muscarinic receptor [1]; binding experiments, Eq. (30)): 0.7 ± 0.3 | αiperoxo (factor of binding cooperativity with iperoxo) (M1 muscarinic receptor [1]; binding experiments, Eq. (30)): 0.8 ± 0.4 | decrease in affinity of [3H]NMS (M1 muscarinic receptor [1]; fit of Eq. (29), TBPB estimate with high uncertainty): 500 fold | binding cooperativity with carbachol and iperoxo (M1 muscarinic receptor [1]; fit of Eq. (30), high degree of uncertainty): slightly negative | E’MAX (M1 muscarinic receptor [2]): 56.0 ± 2.2 and 57.8 ± 3.3 and 57.9 ± 1.4 | E′MAX of response compared with carbachol (M1 muscarinic receptor [2]): close to E′MAX of full agonist carbachol | basal (M1 muscarinic receptor [2]): 52.7 and 53.2 and 51.3 | effect on EC′50 of carbachol and iperoxo (M1 muscarinic receptor [2]): increased EC′50 values | nH (M1 muscarinic receptor [2]): 1.15 ± 0.18 and 1.18 ± 0.20 and 0.85 ± 0.15 | binding cooperativity α in functional experiments compared with binding experiments (M1 muscarinic receptor [2]; Figs. 14 and 15 vs Fig. 12): about twice stronger | τA (M1 muscarinic receptor [2]): 1.26 ± 334 | EMAX (M1 muscarinic receptor [2]): 98 ± 53 | effect on E′MAX of carbachol and iperoxo (M1 muscarinic receptor [2]; fixed concentrations of allosteric ligand): decreased E′MAX values | α (factor of binding cooperativity) (M1 muscarinic receptor [2]; with carbachol): 0.48 ± 0.05 | β (factor of operational cooperativity) (M1 muscarinic receptor [2]; with carbachol): 0.80 ± 0.05 | α (factor of binding cooperativity) (M1 muscarinic receptor [2]; with iperoxo): 0.51 ± 0.08 | β (factor of operational cooperativity) (M1 muscarinic receptor [2]; with iperoxo): 0.78 ± 0.08 | E’MAX (M1 muscarinic receptor [2]; iperoxo + 1 µM TBPB): 59.7 ± 3.9 fold-over basal | basal (M1 muscarinic receptor [2]; iperoxo + 1 µM TBPB): 51.3 fold-over basal | nH (M1 muscarinic receptor [2]; iperoxo + 1 µM TBPB): 1.18 ± 0.20 | E’MAX (M1 muscarinic receptor [2]; iperoxo + 3 µM TBPB): 58.0 ± 4.8 fold-over basal | basal (M1 muscarinic receptor [2]; iperoxo + 3 µM TBPB): 52.7 fold-over basal | nH (M1 muscarinic receptor [2]; iperoxo + 3 µM TBPB): 0.82 ± 0.20 | E’MAX (M1 muscarinic receptor [2]; iperoxo + 10 µM TBPB): 57.6 ± 2.9 fold-over basal | basal (M1 muscarinic receptor [2]; iperoxo + 10 µM TBPB): 53.2 fold-over basal | nH (M1 muscarinic receptor [2]; iperoxo + 10 µM TBPB): 1.19 ± 0.22 | E’MAX (apparent maximal response) (M1 muscarinic receptor [2]; ligand alone, Eq. (31)): 54.4 ± 0.9 fold-over basal | nH (slope) (M1 muscarinic receptor [2]; ligand alone, Eq. (31)): 1.01 ± 0.08 | operational cooperativity β (M1 muscarinic receptor [2]; with both carbachol and iperoxo, indicated by E′MAX change): < 1

C[N+](C)(C)CC#CCOC1=NOCC1 [iperoxo]
flow (fraction of low-affinity sites) (M1 muscarinic receptor [1]; Eq. (27)): 51 ± 5% | high-affinity binding (candidate KA) (M1 muscarinic receptor [1]; competition with [3H]NMS, high-affinity sites): 200 pM | pIC50high (M1 muscarinic receptor [1]; high-affinity sites, 1 nM [3H]NMS, Eq. (27)): 8.99 ± 0.05 | pKIhigh (M1 muscarinic receptor [1]; high-affinity sites, 1 nM [3H]NMS, calculated from IC50 by Eq. (28)): 9.70 ± 0.05 | pIC50low (M1 muscarinic receptor [1]; low-affinity sites, 1 nM [3H]NMS, Eq. (27)): 5.96 ± 0.04 | pKIlow (M1 muscarinic receptor [1]; low-affinity sites, 1 nM [3H]NMS, calculated from IC50 by Eq. (28)): 6.66 ± 0.04 | τA (M1 muscarinic receptor [2]): 1.97 ± 708 | EMAX (M1 muscarinic receptor [2]): 98 ± 53 | basal (M1 muscarinic receptor [2]; agonist alone): 1 fold-over basal | efficacy ranking (M1 muscarinic receptor [2]; functional experiments): greater efficacy than carbachol | E’MAX (apparent maximal response) (M1 muscarinic receptor [2]; ligand alone, Eq. (31)): 64.7 ± 0.5 fold-over basal | nH (slope) (M1 muscarinic receptor [2]; ligand alone, Eq. (31)): 1.04 ± 0.02 | pEC50 (M1 muscarinic receptor [2]; ligand alone, Eq. (31)): 9.42 ± 0.01 | operational efficacy τ (τA / τB) (M1 muscarinic receptor [2]; ligand alone, Eq. […]): 1.86 ± 0.04 | pKA / pKB (functional) (M1 muscarinic receptor [2]; ligand alone, Eq. […]): 8.96 ± 0.02
